Test results taken from patent US20250161238A1, “NMDAR Antagonists Prevent Ageing and Aging-Associated Conditions and Diseases Through Increasing 20S Proteasome Activity” (priority 2022, published 2025).

Experiments:
LC3 = test: Autophagy: LC3 turnover and LC3 puncta in HepG2 stably expressing LC3; type: cell-based, human; conditions: HepG2 cell stably expressing LC3
Description: One of the most experimentally straightforward method to monitor autophagic activity is the detection of microtubule-associated protein light chain 3 (LC3) protein processing. LC3 is the only known protein that is specifically associated with all types of autophagic membranes, including phagophore, autophagosome and autolysosome (a hybrid organelle formed by fusion of the autophagosome and lysosome). LC3 is specifically associated with the autophagosome. Upon the autophagy induction, the cytosolic LC3 (LC3-I) is conjugated to phosphatidylethanolamine (PE) to form lipidated LC3 (LC3-II). LC3-II binds to the expanding isolation membrane and remains bounded to complete autophagosome. Therefore, the amount of LC3-II correlates well with the number of autophagosomes, which is widely used as a marker for the autophagosome. Autophagy is a multi-step process which includes not just the formation of autophagosomes, but most importantly, the flux through the entire system, including the degradation of LC3-II upon fusion with lysosomes. Therefore, the expected result is that the LC3-II protein is degraded for complete autophagy. […] However, total amount of LC3 (LC3-I plus LC3II) was not changed.
The other basic protocol for the outophagy detection is monitoring the number of autophagosomes by visualizin LC3 puncta using flourescence microscopy. […]

p21-GFP fusion protein = p21-GFP fusion protein amount in cells; type: cell-based, human; conditions: Hep3B expressing p21-GFP
C. elegans [1] = test: C. elegans movements (non-moving, swimming); type: in vivo; conditions: 18th day
Method: Therefore, the movements of the C. elegans grown at 20° C. on standard nematode growth medium(NGM) plates shaked at constant speed at 200 rpm were recorded for 5 minutes on the 18th day. All C. elegans in plate well were individually followed and counted by three different eyes for 5 minutes. […] One of the basic movement of C. elegans in liquid is crawling while the other is swimming. Previously described that swimming is more energetically demanding for C. elegans than the crawling motion. In addition it was stated that having the ability to swim is related to locomotory fatigue, muscle mitochondrial oxidation, a transcriptional oxidative stress response, and changes in carbohydrate and fat metabolism. It was also known that the swimming ability of C. elegans is also related to pharyngeal, intestinal, neuronal functions and strong muscle into old age.
To sterilize the animals 300 μL of a 6 mM Fluorodeoxyuridine (FUDR) stock solution was added to 10 ml medium. During the monitoring of their life span, the worms were kept by shaking at a constant speed of 200 rpm. Locomotor activities of the worms were recorded and available.

C. elegans [2] = test: NADP+ and NADPH+ amount in C. elegans; type: in vivo; conditions: 19th day
Description: Therefore, the amount of NADP+ and NADPH+ were investigated in C. elagans.

oxidized proteins = test: Oxidation status of proteins in mouse tissues (DNP-hydrazone western blot); type: in vivo; conditions: 24 month old mice
[3] = test system: human mesenchymal stem cells; test: Differentiation markers of mesenchymal stem cells (western blot); type: cell-based; conditions: day 14
Description: We investigated the differentiation of stem cells in the presence of memantine after cell passages using the simple differentiation method using the DMEM/F12, 10% FBS without coculture of mouse fibroblast (Yoo et all. 2020).
Cell were harvested at day 14 for western blot and the protein expression amounts of the differentiation markers cd44, cd73, and cd90 were investigated. […] Another indicator of the stem cell differentiation is the determination of the amounts of lipid droplet in the cell. Fourteen-day cell passage is caused to increase lipid in the cell. It was observed that memantine treatment has prevented the amount of lipid droplet (FIG. 36D).

[4] = humans, 20 mg per day; cited from earlier work
[5] = animals studies; cited from earlier work

Compound	total amount of LC3 (LC3-I plus LC3II) (LC3)	LC3-II amount (LC3; western blot)	p21-GFP fusion protein / GFP amount (p21-GFP fusion protein)	number of C. elegans that can swim compared to without treatment (C. elegans [1])	NADP+ compared to C. elegans without treatment (C. elegans [2])	oxidation of protein from lung tissue (oxidized proteins)	Oxidized proteins in liver, brain, kidney, skin and pancreas (oxidized proteins; memantin for 12 months)	increase in cd44 protein expression [3]	increase in cd73 protein expression [3]	increase in cd90 protein expression [3]	serum levels [4]	induction of HSP, neuronal vacuolization and necrosis [5]
CNC1(c2ccccc2Cl)CCCCC1=O (stereo not drawn) [ketamin, 2-(2-chlorophenyl)-2-(methylamino)-cyclohexanone]	not changed	increase	decrease	–	–	–	–	–	–	–	–	–
CC12CC3CC(C)(C1)CC(N)(C3)C2 [memantine, 3,5-dimethyladamantan-1-amine]	–	–	–	2,4 times	2 folds	No significant change	reduced	statistically significantly less	statistically significantly less	statistically significantly less	500 to 1000 nM	No induction
